Each structure is given as a SMILES string. pKi: −log10 of the molar value.

From patent US5824691A, “Guanidine derivatives as inhibitors of Na^+ /H^+ exchange in cells” (Fujisawa Pharmaceutical Co., Ltd., priority 1993, dated 1998) come the findings set out here.

The target in the experiment is T1, Na^+ /H^+ exchanger (Rattus norvegicus, UniProt P26431).
T1 construct: endogenous in cells; host or cells: thymocytes freshly isolated from the thymus of a male SD (Sprague-Dawley) rat
The experiment can be described thus: Inhibitory activity on Na^+ /H^+ exchange in cells (thymocyte swelling in sodium propionate medium). The experiment is classed as cell-based. The note with it: apparent Ki, Lineweaver-Burk plot; rate of swelling of thymocytes (male SD strain); sodium-propionate medium pH 6.8; 0.1% DMSO; 3-5 concentrations. The method, then: [2] Inhibitory activity on Na^+ /H^+ exchange in cells
Procedure was carried out according to a similar manner to the method described in Enzymology 173, 777 (1989).
One male SD strain weighing 250-300 g was sacrificed with the blow on the head. Then, the thymus was removed into ice-cold NaCl medium (140 mM sodium chloride, 1 mM potassium chloride, 1 mM calcium chloride, 1 mM magnesium chloride, 10 mM glucose and 20 mM N-2-hydroxyethylpiperazine-N'-2-ethanesulfonic acid (HEPES) - - - pH 7.3), cut in small fragments, and transferred to glass homogenizer. The cells were dissociated by gentle strokes, and the resulting suspension was filtrated through six layers of surgical gauze and the filtrate was centrifuged at 4° C. at 1000 g for 5 minutes. The pellet was resuspended in RPMI 1640 medium (pH 7.3) at room temperature to adjust final cell concentration (1×10^7 cells/ml).
This method detects the swelling that accompanies activation of Na^+ /H^+ exchanger in cells incubated with sodium propionate. Propionic acid rapidly penetrates through the membrane. […]
Cell sizing and counting were performed electrically with the Coulter Counter-Channelyzer (AT-II). […] Rate of Swelling (volume/min.) was measured by using 3-5 concentrations of test compound. Then, apparent Ki value of test compound was calculated by using Line weaver-Burk plot.

T1 sequence (P26431 whole entry): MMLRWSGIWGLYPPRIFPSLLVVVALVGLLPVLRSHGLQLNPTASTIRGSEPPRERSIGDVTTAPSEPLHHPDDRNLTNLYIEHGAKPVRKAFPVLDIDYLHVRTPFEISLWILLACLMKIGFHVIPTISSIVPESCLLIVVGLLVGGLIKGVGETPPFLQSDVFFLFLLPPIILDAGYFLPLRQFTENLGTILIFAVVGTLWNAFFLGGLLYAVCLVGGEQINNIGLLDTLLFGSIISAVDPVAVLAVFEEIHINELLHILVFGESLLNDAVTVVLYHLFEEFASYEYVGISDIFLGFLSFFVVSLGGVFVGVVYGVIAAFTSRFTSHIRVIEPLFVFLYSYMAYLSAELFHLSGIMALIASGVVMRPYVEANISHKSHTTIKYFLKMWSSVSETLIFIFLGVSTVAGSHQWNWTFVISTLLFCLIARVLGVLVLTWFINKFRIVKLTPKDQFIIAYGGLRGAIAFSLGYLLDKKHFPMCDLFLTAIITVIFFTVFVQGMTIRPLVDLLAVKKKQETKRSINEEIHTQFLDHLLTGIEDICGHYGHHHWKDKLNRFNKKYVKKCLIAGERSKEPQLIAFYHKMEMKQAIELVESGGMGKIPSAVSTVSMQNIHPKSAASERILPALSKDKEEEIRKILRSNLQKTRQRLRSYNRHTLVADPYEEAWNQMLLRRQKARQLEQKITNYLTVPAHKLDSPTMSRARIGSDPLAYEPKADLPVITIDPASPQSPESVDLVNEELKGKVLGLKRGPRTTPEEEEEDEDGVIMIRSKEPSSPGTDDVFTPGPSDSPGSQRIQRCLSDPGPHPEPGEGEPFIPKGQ

On to `CS(=O)(=O)c1cc(C(=O)N=C(N)N)cc(-n2cccc2)c1` [Test compound (a), 2-[3-Methylsulfonyl-5-(pyrrol-1-yl)benzoyl]guanidine], for which the pKi is greater than 7.00.
